{
  "source": "patent US20220226484A1",
  "about": "“THERAPEUTIC PEPTIDES” (COHBAR, INC., priority 2019, published 2022)",
  "key": {"[1]": {"test": "Cell viability, PrestoBlue Assay", "type": "cell-based, human", "details": "human; read-out: Cell viability, % of the background corrected DMSO control value", "experimental": "The effect of the peptides on cell viability can be assessed in cultured cells using suitable assay of viability such as the PrestoBlue® assay (Thermo Fisher Scientific, Waltham, Mass.). Peptides were initially prepared as 10 mM stock in DMSO and tested at a final concentration of 10 μM (0.1% DMSO). […] PrestoBlue Assay Reagent was purchased from Thermo Fisher Scientific. A172 human brain glioblastoma cell line was purchased from American Type Culture Collection (Manassas, Va.). A172 cells were grown in DMEM supplemented with 10% FBS with 100 IU/ml penicillin and 100 μg/ml streptomycin. Cultures were maintained at 37° C. in a humidified atmosphere of 5% CO2/95% air. A172 cells were seeded at 8,000 cells per well on 96-well plates. […] Cell viability was determined using a PrestoBlue Assay reagent […] according to the manufacturer's instructions. Absorption for each sample well on the plate was measured using a Cytation 3 plate reader at 560 nm and 590 nm (BioTek, Winooski, Vt.). Activity was calculated relative to 0.1% DMSO untreated control. Treatment with 0.1% DMSO alone was used as the cell viability activity control. The relative standard deviation of the DMSO control was <5%."}, "[2]": {"test_system": "SH-SY5Y Neuroblastoma Cells", "test": "ATP levels (CellTiter-Glo)", "type": "cell-based, human", "details": "staurosporine 1 μM", "experimental": "The effect of the peptides on cellular metabolism can be assessed using an assay of ATP levels in cultured cells such as human neuroblastoma cells. Peptides were initially prepared as 10 mM stock in DMSO and used at a final concentration of 10 μM (0.1% DMSO). […] CellTiter-Glo® Assay kit was purchased from Promega. SH-SY5Y human bone marrow neuroblastoma cell line was purchased from American Type Culture Collection (Manassas, Va.) and licensed from Memorial Sloan-Kettering Cancer Center (New York, N.Y.). SH-SY5Y cells were grown in DMEM/F12 medium supplemented with 10% FBS with 100 IU/ml penicillin and 100 μg/ml streptomycin. Cultures were maintained at 37° C. in a humidified atmosphere of 5% CO2/95% air. SH-SY5Y cells were seeded at 30,000 cells per well on 96-well plates. […] ATP levels were determined using a CellTiter-Glo Assay kit (Promega) according to the manufacturer's instructions. Luminescence for each sample well on the plate was measured using a Cytation 3 plate reader (BioTek, Winooski, Vt.). Activity was calculated relative to 0.1% DMSO treated control. The relative standard deviation of the result for the 0.1% DMSO treated control was <5%."}},
  "data": [
    {"smiles": "CN[C@@H]1C[C@H]2O[C@@](C)([C@@H]1OC)n1c3ccccc3c3c4c(c5c6ccccc6n2c5c31)C(=O)NC4", "note": "[staurosporine, Staurosporine, reference compound]", "values": [
      {"measurement": "viability at 1 µM", "setting": "[1]", "value": "< 75", "unit": "%"},
      {"measurement": "ATP levels, % of the 0.1% DMSO treated control value", "setting": "[2]", "value": "< 5", "unit": "%"}
    ]}
  ]
}
